# Like-named read-outs stand apart in the source and are kept apart here. Numbered stars: 1 amine (or outer) side, 2 acyl side, 3 side chain; on linkers, the order of the positions; unused ones are H or OH. Bridge positions count the residues as written; N and C are the ends. Square brackets hold non-standard residues; d marks the D form. Peptide text beside a SMILES is read from it. * marks the point of attachment. Benzoyl(4-OPh) = O=C(c1ccc(Oc2ccccc2)cc1)*; X33 = N#Cc1ccc(-c2cc(C(=O)*)ccc2Cl)cc1; X26 = O=C(c1ccnc(-c2ccc(Cl)cc2)c1)*; X37 = COc1cc(C(=O)*)cc(-c2ccccc2)n1; X38 = O=S(=O)(c1cccc(-c2ccccc2)c1)*; X20 = Cc1ccc(-c2cccc(C(=O)*)c2)cc1; X10 = COc1nc(-c2ccccc2)ccc1C(=O)*; X24 = COc1ccc(-c2ccccc2)cc1C(=O)*; X36 = c1ccc(-c2cccc(N*)c2)cc1; Dab = NCC[C@H](N)C(=O)O; Dap = NC[C@H](N)C(=O)O; CO = O=C([*:1])[*:2]
# Key:
# [1] = tested on: AB-1649, polymyxin-resistant clinical isolate of Acinetobacter baumannii; assay type: cell-based
# Outline: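 MIC and MBC were measured by CLSI broth dilution methods (M7-A8, M100-S20, M26-A) against a polymyxin-resistant clinical isolate and reported in mg/L. Compounds were tested as trifluoroacetate salts, with one exception tested as the sulfate.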
# [2] = tested on: Pseudomonas aeruginosa strain PA01; assay type: cell-based
# Outline: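 CLSI broth dilution against P. aeruginosa PA01 with two-fold concentration steps and overnight incubation; MIC is lowest concentration visibly inhibiting growth versus drug-free control, in mg/L. Compounds tested as trifluoroacetate salts, in duplicate, lower value reported if within 2-fold; control organisms and reference compounds included.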
# [3] = tested on: AB-1649, polymyxin-resistant clinical isolate of Acinetobacter baumannii; assay type: cell-based; remark: listed apart in the source
# Outline: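 Broth dilution MIC per CLSI against the polymyxin-resistant A. baumannii isolate, 2-fold dilutions, overnight incubation, visual read of lowest concentration inhibiting growth. Run in duplicate, lower value reported when within 2-fold; MBC per CLSI M26-A guideline.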
# [4] = tested on: PA-1646, polymyxin-resistant clinical isolate of Pseudomonas aeruginosa; assay type: cell-based
# Outline: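 Broth dilution MIC per CLSI with 2-fold concentration steps, read visually after overnight incubation as lowest concentration inhibiting growth; duplicates within 2-fold, lower value reported, with QC strains and reference compounds. Compounds tested as trifluoroacetate salts, polymyxin B as sulfate.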
# [5] = tested on: AB-3167, clinical isolate of Acinetobacter baumannii; assay type: cell-based
# Outline: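 Broth dilution MIC per CLSI (M7-A8, M100-S20, M26-A for bactericidal), 2-fold dilution series, overnight incubation, visual read of lowest concentration inhibiting growth versus drug-free control. Duplicates run; lower value reported if within 2-fold, otherwise repeated. Compounds tested as trifluoroacetate salts; QC strains and reference compounds required in range.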
# [6] = tested on: EC-1, mouse virulent strain of Escherichia coli; assay type: cell-based; details: E. coli EC-1; overnight incubation, lower of duplicate values; trifluoroacetate salt (Example 1 and PMB sulfate)
# Outline: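 Compounds were tested mostly as trifluoroacetate salts. Duplicate CLSI broth-dilution MICs were read visually after overnight incubation over 2-fold dilutions, with the lower of duplicates within 2-fold taken. QC organisms and reference drugs were included in each run.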
# [7] = tested on: PA-1646, polymyxin-resistant clinical isolate of Pseudomonas aeruginosa; assay type: cell-based; remark: listed apart in the source
# Outline: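 Broth dilution MIC and bactericidal (MBC) testing per CLSI methods (M7-A8, M100-S20, M26-A) against polymyxin-resistant clinical P. aeruginosa isolate PA-1646. Compounds tested as trifluoroacetate salts, one as sulfate salt; values in mg/L.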
# [8] = Cytotoxicity assay (LDH release), hRPTEC; assay type: cell-based, human; details: human
# Outline: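 hRPTEC grown 72 h in REGM, then exposed to compounds at 100, 67, 44, 30, 20 and 13 micromolar for 24 h at 37° C, 5% CO2. LDH released into supernatant measured; TC50 (micromolar) derived. Compounds tested as trifluoroacetate salts unless otherwise noted.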
# [9] = AB-1649, polymyxin-resistant clinical isolate of
# [10] = PA-1646, polymyxin-resistant clinical isolate of
SMILES,"AB-1649 MBC [1, 9] [µg/mL]",PA01 MIC ([2]; strain) [µg/mL],"AB-1649 MIC [3, 9] [µg/mL]","PA-1646 MIC [4, 10] [µg/mL]","AB-3167 MIC ([5]; AB-3167, clinical isolate of) [µg/mL]",EC-1 MIC [6] [µg/mL],"PA-1646 MBC [7, 10] [µg/mL]",CC50 at 24 h [8] [µM],"AB-1649 MBC ([1]; A. baumannii AB-1649, tested as trifluoroacetate salt (Example 1 and PMB as sulfate salt)) [µg/mL]","PA01 MIC ([2]; P. aeruginosa PA01, overnight incubation, lower of duplicate values, trifluoroacetate salt (Example 1 and PMB sulfate)) [µg/mL]","AB-1649 MIC ([3]; A. baumannii AB-1649, overnight incubation, lower of duplicate values, trifluoroacetate salt (Example 1 and PMB sulfate)) [µg/mL]","PA-1646 MIC ([4]; P. aeruginosa PA-1646, overnight incubation, lower of duplicate values, trifluoroacetate salt (Example 1 and PMB sulfate)) [µg/mL]","AB-3167 MIC ([5]; A. baumannii AB-3167, overnight incubation, lower of duplicate values, trifluoroacetate salt (Example 1 and PMB sulfate)) [µg/mL]","PA-1646 MBC ([7]; P. aeruginosa PA-1646, tested as trifluoroacetate salt (Example 1 and PMB as sulfate salt)) [µg/mL]","CC50 at 24 h ([8]; Human Renal Proximal Tubule Epithelial cells (hRPTEC), hRPTEC, 24 hours treatment, LDH release, Toxic Concentration 50%, read-out: hRPTEC TC50) [µM]"
COc1cc(C(=O)N[C@@H](CCN)C(=O)N[C@H](C(=O)N[C@@H](CN)C(=O)N[C@H]2CCNC(=O)[C@H]([C@@H](C)O)NC(=O)[C@H](CCN)NC(=O)[C@H](CCN)NC(=O)[C@H](CC(C)C)NC(=O)[C@@H](Cc3ccccc3)NC(=O)[C@H](CCN)NC2=O)[C@@H](C)O)cc(-c2ccccc2)n1 [Example 35] (X37-[Dab]T[Dap][Dab][Dab][dF]L[Dab][Dab]T; lactam 4-C),4,0.5,4,1,0.5,0.25,1,24,,,,,,,
COc1ccc(-c2ccccc2)cc1C(=O)N[C@@H](CCN)C(=O)N[C@H](C(=O)N[C@@H](CN)C(=O)N[C@H]1CCNC(=O)[C@H]([C@@H](C)O)NC(=O)[C@H](CCN)NC(=O)[C@H](CCN)NC(=O)[C@H](CC(C)C)NC(=O)[C@@H](Cc2ccccc2)NC(=O)[C@H](CCN)NC1=O)[C@@H](C)O [Example 36] (X24-[Dab]T[Dap][Dab][Dab][dF]L[Dab][Dab]T; lactam 4-C),4,0.5,4,2,0.25,0.5,2,19,,,,,,,
Cc1ccc(-c2cccc(C(=O)N[C@@H](CCN)C(=O)N[C@H](C(=O)N[C@@H](CN)C(=O)N[C@H]3CCNC(=O)[C@H]([C@@H](C)O)NC(=O)[C@H](CCN)NC(=O)[C@H](CCN)NC(=O)[C@H](CC(C)C)NC(=O)[C@@H](Cc4ccccc4)NC(=O)[C@H](CCN)NC3=O)[C@@H](C)O)c2)cc1 [Example 37] (X20-[Dab]T[Dap][Dab][Dab][dF]L[Dab][Dab]T; lactam 4-C),4,2,4,2,1,0.5,4,18,,,,,,,
COc1nc(-c2ccccc2)ccc1C(=O)N[C@@H](CCN)C(=O)N[C@H](C(=O)N[C@@H](CN)C(=O)N[C@H]1CCNC(=O)[C@H]([C@@H](C)O)NC(=O)[C@H](CCN)NC(=O)[C@H](CCN)NC(=O)[C@H](CC(C)C)NC(=O)[C@@H](Cc2ccccc2)NC(=O)[C@H](CCN)NC1=O)[C@@H](C)O [Example 38] (X10-[Dab]T[Dap][Dab][Dab][dF]L[Dab][Dab]T; lactam 4-C),4,1,4,1,0.25,0.25,1,16,,,,,,,
CC(C)C[C@@H]1NC(=O)[C@@H](Cc2ccccc2)NC(=O)[C@H](CCN)NC(=O)[C@@H](NC(=O)[C@H](CN)NC(=O)[C@@H](NC(=O)[C@H](CCN)NC(=O)c2ccc(Cl)c(-c3ccc(C#N)cc3)c2)[C@@H](C)O)CCNC(=O)[C@H]([C@@H](C)O)NC(=O)[C@H](CCN)NC(=O)[C@H](CCN)NC1=O [Example 39] (X33-[Dab]T[Dap][Dab][Dab][dF]L[Dab][Dab]T; lactam 4-C),4,1,4,1,0.5,0.5,4,20,,,,,,,
CC(C)C[C@@H]1NC(=O)[C@@H](Cc2ccccc2)NC(=O)[C@H](CCN)NC(=O)[C@@H](NC(=O)[C@H](CN)NC(=O)[C@@H](NC(=O)[C@H](CCN)NC(=O)Nc2cccc(-c3ccccc3)c2)[C@@H](C)O)CCNC(=O)[C@H]([C@@H](C)O)NC(=O)[C@H](CCN)NC(=O)[C@H](CCN)NC1=O [Example 40] ({X36-CO}-[Dab]T[Dap][Dab][Dab][dF]L[Dab][Dab]T; lactam 4-C),4,0.5,4,1,0.25,0.25,1,15,,,,,,,
CC(C)C[C@@H]1NC(=O)[C@@H](Cc2ccccc2)NC(=O)[C@H](CCN)NC(=O)[C@@H](NC(=O)[C@H](CN)NC(=O)[C@@H](NC(=O)[C@H](CCN)NS(=O)(=O)c2cccc(-c3ccccc3)c2)[C@@H](C)O)CCNC(=O)[C@H]([C@@H](C)O)NC(=O)[C@H](CCN)NC(=O)[C@H](CCN)NC1=O [Example 41] (X38-[Dab]T[Dap][Dab][Dab][dF]L[Dab][Dab]T; lactam 4-C),>64,0.25,64,2,1,0.25,4,42,,,,,,,
CC(C)C[C@@H]1NC(=O)[C@@H](Cc2ccccc2)NC(=O)[C@H](CCN)NC(=O)[C@@H](NC(=O)[C@H](CN)NC(=O)[C@@H](NC(=O)[C@H](CCN)NC(=O)c2ccc(Oc3ccccc3)cc2)[C@@H](C)O)CCNC(=O)[C@H]([C@@H](C)O)NC(=O)[C@H](CCN)NC(=O)[C@H](CCN)NC1=O [Example 42] ({Benzoyl(4-OPh)}-[Dab]T[Dap][Dab][Dab][dF]L[Dab][Dab]T; lactam 4-C),,,,,,0.25,,,1,0.5,1,1,0.25,4,27
CC(C)C[C@@H]1NC(=O)[C@@H](Cc2ccccc2)NC(=O)[C@H](CCN)NC(=O)[C@@H](NC(=O)[C@H](CN)NC(=O)[C@@H](NC(=O)[C@H](CCN)NC(=O)c2ccnc(-c3ccc(Cl)cc3)c2)[C@@H](C)O)CCNC(=O)[C@H]([C@@H](C)O)NC(=O)[C@H](CCN)NC(=O)[C@H](CCN)NC1=O [Example 44] (X26-[Dab]T[Dap][Dab][Dab][dF]L[Dab][Dab]T; lactam 4-C),1,0.5,1,1,0.25,0.25,1,30,,,,,,,
